From article PMC4601599, “High-resolution structures of Lactobacillus salivarius transketolase in the presence and absence of thiamine pyrophosphate” (Acta Crystallographica. Section F, Structural Biology …, 2015) come the findings set out here.

In data set [1] the target is T1, LsTktA (Lactobacillus salivarius UCC118 transketolase) (Ligilactobacillus salivarius, UniProt Q1WQU8).
T1 construct: gene tktA; pOPINF, His-tagged, expressed in E. coli Rosetta pLysS (DE3); 680 residues with tag; 662 residues modelled; homodimer; megaplasmid pMP118-encoded
T1 sequence (Q1WQU8 1-663): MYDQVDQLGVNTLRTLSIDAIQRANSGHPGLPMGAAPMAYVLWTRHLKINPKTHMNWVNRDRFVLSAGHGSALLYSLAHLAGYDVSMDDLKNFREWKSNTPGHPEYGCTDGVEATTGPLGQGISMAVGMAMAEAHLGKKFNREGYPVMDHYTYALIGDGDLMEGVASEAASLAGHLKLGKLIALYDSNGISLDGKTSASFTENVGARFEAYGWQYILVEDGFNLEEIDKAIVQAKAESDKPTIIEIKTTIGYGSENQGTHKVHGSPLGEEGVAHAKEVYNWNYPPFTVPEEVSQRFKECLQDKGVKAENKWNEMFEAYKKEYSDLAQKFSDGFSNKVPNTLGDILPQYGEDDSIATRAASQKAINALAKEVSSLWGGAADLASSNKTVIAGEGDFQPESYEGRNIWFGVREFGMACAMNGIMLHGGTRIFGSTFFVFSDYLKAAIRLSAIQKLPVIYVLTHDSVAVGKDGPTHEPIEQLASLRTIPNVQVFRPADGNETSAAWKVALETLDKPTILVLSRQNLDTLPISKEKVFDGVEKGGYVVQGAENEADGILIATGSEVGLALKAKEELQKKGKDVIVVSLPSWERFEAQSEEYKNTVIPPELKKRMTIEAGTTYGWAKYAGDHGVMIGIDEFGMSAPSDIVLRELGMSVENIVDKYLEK
As to the kind of experiment: X-ray crystal structure of co-crystal, […] A. The data set is classed as binding. To be noted: Mg2+; co-crystallised with 0.5 mM TPP and 2 mM MgCl2; pH 7.5; 293 K; site at dimer interface.

Data set [2] deals with the molecule itself. In words: SEC-MALS; Superdex 200 Increase 10/300 GL, 20 mM Tris-HCl pH 7.5, 200 mM NaCl, 0.5 mM TCEP, 20 C, with and without 0.5 mM TPP; about 1 mg/ml; dimer and monomer.

For `Cc1ncc(C[n+]2csc(CCOP(=O)(O)OP(=O)(O)O)c2C)c(N)n1` [thiamine pyrophosphate], the “X-ray crystal structure of co-crystal, 2.29 A” value in data set [1] was “Two symmetrical TPP cofactor-binding sites are located at the LsTktA dimer interface”.

B1: Lactobacillus salivarius UCC118 transketolase (LsTktA) (enzyme, UniProt Q1WQU8 1-663, looked up)
chain: MYDQVDQLGVNTLRTLSIDAIQRANSGHPGLPMGAAPMAYVLWTRHLKINPKTHMNWVNRDRFVLSAGHGSALLYSLAHLAGYDVSMDDLKNFREWKSNTPGHPEYGCTDGVEATTGPLGQGISMAVGMAMAEAHLGKKFNREGYPVMDHYTYALIGDGDLMEGVASEAASLAGHLKLGKLIALYDSNGISLDGKTSASFTENVGARFEAYGWQYILVEDGFNLEEIDKAIVQAKAESDKPTIIEIKTTIGYGSENQGTHKVHGSPLGEEGVAHAKEVYNWNYPPFTVPEEVSQRFKECLQDKGVKAENKWNEMFEAYKKEYSDLAQKFSDGFSNKVPNTLGDILPQYGEDDSIATRAASQKAINALAKEVSSLWGGAADLASSNKTVIAGEGDFQPESYEGRNIWFGVREFGMACAMNGIMLHGGTRIFGSTFFVFSDYLKAAIRLSAIQKLPVIYVLTHDSVAVGKDGPTHEPIEQLASLRTIPNVQVFRPADGNETSAAWKVALETLDKPTILVLSRQNLDTLPISKEKVFDGVEKGGYVVQGAENEADGILIATGSEVGLALKAKEELQKKGKDVIVVSLPSWERFEAQSEEYKNTVIPPELKKRMTIEAGTTYGWAKYAGDHGVMIGIDEFGMSAPSDIVLRELGMSVENIVDKYLEK
notes: Transketolase (tktA, LSL_1946) of Lactobacillus salivarius UCC118, encoded on the megaplasmid pMP118; the histidine-tagged protein consists of 680 amino acids; 662 amino acids are modelled in the crystal structures; Crystallised apo and with TPP and Mg2+; also called L. salivarius Tkt; LSL_1946; source: E. coli Rosetta pLysS (DE3), purified (nickel-chelation chromatography, gel filtration)
For the molecule B1, the “stoichiometry N” value in data set [2] turned out to be 2.
